Results taken from ChEMBL document CHEMBL1275550, “In vitro activity of doripenem, a carbapenem for the treatment of challenging infections caused by gram-negative bacteria, against recent clinical isolates from the United States” (2008).
Values after ≈ are worked out from the molar mass of the structure shown.

How the values were obtained:
Type in all cases: functional
Citrobacter [1] = test: Antimicrobial activity against Citrobacter by broth microdilution method
Citrobacter [2] = test: Antimicrobial activity against Citrobacter with nonderepressed AmpC beta-lactamsae by broth microdilution method
Citrobacter [3] = test: Antimicrobial activity against Citrobacter assessed as susceptible isolate by broth microdilution method
Klebsiella pneumoniae [4] = test: Antimicrobial activity against Non-ESBL Klebsiella pneumoniae by broth microdilution method
Pseudomonas aeruginosa [5] = test: Antimicrobial activity against Pseudomonas aeruginosa assessed as susceptible isolate by broth microdilution method
Pseudomonas aeruginosa [6] = test: Antimicrobial activity against imipenem non-susceptible Pseudomonas aeruginosa by broth microdilution method
Enterobacteriaceae [7] = test: Antimicrobial activity against Enterobacteriaceae assessed as susceptible isolate by broth microdilution method
Enterobacter cloacae [8] = test: Antimicrobial activity against Enterobacter cloacae with nonderepressed AmpC beta-lactamsae assessed as susceptible isolate by broth microdilution method
Klebsiella pneumoniae [9] = test: Antimicrobial activity against ESBL producing Klebsiella pneumoniae by broth microdilution method
Proteus mirabilis [10] = test: Antimicrobial activity against Non-ESBL Proteus mirabilis assessed as susceptible isolate by broth microdilution method
Pseudomonas aeruginosa [11] = test: Antimicrobial activity against Ceftazidime susceptible Pseudomonas aeruginosa by broth microdilution method
Enterobacteriaceae [12] = test: Antimicrobial activity against Enterobacteriaceae by broth microdilution method
Escherichia coli [13] = test: Antimicrobial activity against Non-ESBL Escherichia coli by broth microdilution method
Pseudomonas aeruginosa [14] = test: Antimicrobial activity against imipenem susceptible Pseudomonas aeruginosa by broth microdilution method
Klebsiella pneumoniae [15] = test: Antimicrobial activity against Klebsiella pneumoniae assessed as susceptible isolate by broth microdilution method
Streptococcus pneumoniae [16] = test: Antimicrobial activity against penicillin-susceptible Streptococcus pneumoniae by broth microdilution method; conditions: Streptococcus pneumoniae
Staphylococcus aureus = test: Antimicrobial activity against methicillin-susceptible Staphylococcus aureus by broth microdilution method; conditions: Staphylococcus aureus
Serratia marcescens [17] = test: Antimicrobial activity against Serratia marcescens by broth microdilution method
Escherichia coli [18] = test: Antimicrobial activity against ESBL producing Escherichia coli by broth microdilution method
Klebsiella pneumoniae [19] = test: Antimicrobial activity against Klebsiella pneumoniae by broth microdilution method
Enterobacter cloacae [20] = test: Antimicrobial activity against Enterobacter cloacae with derepressed AmpC beta-lactamsae by broth microdilution method
Streptococcus pneumoniae [21] = test: Antimicrobial activity against penicillin-resistant Streptococcus pneumoniae by broth microdilution method; conditions: Streptococcus pneumoniae
Acinetobacter [22] = test: Antimicrobial activity against imipenem susceptible Acinetobacter by broth microdilution method
Serratia marcescens [23] = test: Antimicrobial activity against Ceftazidime non-susceptible Serratia marcescens by broth microdilution method
Escherichia coli [24] = test: Antimicrobial activity against Escherichia coli assessed as susceptible isolate by broth microdilution method
Serratia marcescens [25] = test: Antimicrobial activity against Ceftazidime susceptible Serratia marcescens by broth microdilution method
Pseudomonas aeruginosa [26] = test: Antimicrobial activity against Pseudomonas aeruginosa by broth microdilution method
Escherichia coli [27] = test: Antimicrobial activity against Escherichia coli by broth microdilution method
Serratia marcescens [28] = test: Antimicrobial activity against Serratia marcescens assessed as susceptible isolate by broth microdilution method
Citrobacter [29] = test: Antimicrobial activity against Citrobacter with derepressed AmpC beta-lactamsae assessed as susceptible isolate by broth microdilution method
Citrobacter [30] = test: Antimicrobial activity against Citrobacter with nonderepressed AmpC beta-lactamsae assessed as susceptible isolate by broth microdilution method
Pseudomonas aeruginosa [31] = test: Antimicrobial activity against Ceftazidime susceptible Pseudomonas aeruginosa assessed as susceptible isolate by broth microdilution method
Enterobacteriaceae [32] = test: Antimicrobial activity against Ceftazidime non-susceptible Enterobacteriaceae assessed as susceptible isolate by broth microdilution method
Pseudomonas aeruginosa [33] = test: Antimicrobial activity against imipenem susceptible Pseudomonas aeruginosa assessed as susceptible isolate by broth microdilution method
Proteus mirabilis [34] = test: Antimicrobial activity against Non-ESBL Proteus mirabilis by broth microdilution method
Proteus mirabilis [35] = test: Antimicrobial activity against ESBL producing Proteus mirabilis by broth microdilution method
Acinetobacter [36] = test: Antimicrobial activity against Acinetobacter by broth microdilution method
Pseudomonas aeruginosa [37] = test: Antimicrobial activity against Ceftazidime non-susceptible Pseudomonas aeruginosa assessed as susceptible isolate by broth microdilution method

## C[C@@H](O)[C@H]1C(=O)N2C(C(=O)O)=C(S[C@@H]3CN[C@H](CNS(N)(=O)=O)C3)[C@H](C)[C@H]12 [DORIPENEM]
Citrobacter [1]
  MIC50: 0.03 µg/mL (≈ 0.0713 µM)
  MIC90: 0.06 µg/mL (≈ 0.143 µM)
Citrobacter [2]
  MIC50: 0.03 µg/mL (≈ 0.0713 µM)
  MIC90: 0.06 µg/mL (≈ 0.143 µM)
Citrobacter [3]
  Activity: 99.8%
Klebsiella pneumoniae [4]
  MIC50: 0.03 µg/mL (≈ 0.0713 µM)
  MIC90: 0.06 µg/mL (≈ 0.143 µM)
Pseudomonas aeruginosa [5]
  Activity: 88.3%
Pseudomonas aeruginosa [6]
  MIC50: 2 µg/mL (≈ 4.76 µM)
  MIC90: 16 µg/mL (≈ 38 µM)
Enterobacteriaceae [7]
  Activity: 99.5%
Enterobacter cloacae [8]
  Activity: 99.3%
Klebsiella pneumoniae [9]
  MIC50: 0.03 µg/mL (≈ 0.0713 µM)
  MIC90: 0.12 µg/mL (≈ 0.285 µM)
Proteus mirabilis [10]
  Activity: 98.9%
Pseudomonas aeruginosa [11]
  MIC50: 0.25 µg/mL (≈ 0.595 µM)
  MIC90: 2 µg/mL (≈ 4.76 µM)
Enterobacteriaceae [12]
  MIC50: 0.03 µg/mL (≈ 0.0713 µM)
  MIC90: 0.12 µg/mL (≈ 0.285 µM)
Escherichia coli [13]
  MIC: ≤ 0.015 µg/mL
  MIC50: ≤ 0.015 µg/mL
  MIC90: 0.03 µg/mL (≈ 0.0713 µM)
Pseudomonas aeruginosa [14]
  MIC50: 0.25 µg/mL (≈ 0.595 µM)
  MIC90: 1 µg/mL (≈ 2.38 µM)
Klebsiella pneumoniae [15]
  Activity: 99.6%
Streptococcus pneumoniae [16]
  MIC50: ≤ 0.015 µg/mL
Streptococcus pneumoniae [16]; read-out: MIC90
  MIC90: ≤ 0.015 µg/mL
Staphylococcus aureus; read-out: MIC50
  MIC50: 0.03 µg/mL (≈ 0.0713 µM)
Staphylococcus aureus; read-out: MIC90
  MIC90: 0.06 µg/mL (≈ 0.143 µM)
Serratia marcescens [17]
  MIC50: 0.12 µg/mL (≈ 0.285 µM)
  MIC90: 0.25 µg/mL (≈ 0.595 µM)
Escherichia coli [18]
  MIC50: 0.03 µg/mL (≈ 0.0713 µM)
  MIC90: 0.06 µg/mL (≈ 0.143 µM)
Klebsiella pneumoniae [19]
  MIC50: 0.03 µg/mL (≈ 0.0713 µM)
  MIC90: 0.06 µg/mL (≈ 0.143 µM)
Enterobacter cloacae [20]
  MIC50: 0.12 µg/mL (≈ 0.285 µM)
  MIC90: 0.25 µg/mL (≈ 0.595 µM)
Streptococcus pneumoniae [21]; read-out: MIC50
  MIC50: 0.5 µg/mL (≈ 1.19 µM)
Streptococcus pneumoniae [21]; read-out: MIC90
  MIC90: 1 µg/mL (≈ 2.38 µM)
Acinetobacter [22]
  MIC50: 0.25 µg/mL (≈ 0.595 µM)
  MIC90: 2 µg/mL (≈ 4.76 µM)
Serratia marcescens [23]
  MIC50: 0.12 µg/mL (≈ 0.285 µM)
  MIC90: 0.25 µg/mL (≈ 0.595 µM)
Escherichia coli [24]
  Activity: 99.8%
Serratia marcescens [25]
  MIC50: 0.12 µg/mL (≈ 0.285 µM)
  MIC90: 0.25 µg/mL (≈ 0.595 µM)
Pseudomonas aeruginosa [26]
  MIC50: 0.25 µg/mL (≈ 0.595 µM)
  MIC90: 4 µg/mL (≈ 9.51 µM)
Escherichia coli [27]
  MIC: ≤ 0.015 µg/mL
  MIC50: ≤ 0.015 µg/mL
  MIC90: 0.03 µg/mL (≈ 0.0713 µM)
Serratia marcescens [28]
  Activity: 98.7%
Citrobacter [29]
  Activity: 100%
Citrobacter [30]
  Activity: 99.8%
Pseudomonas aeruginosa [31]
  Activity: 92.3%
Enterobacteriaceae [32]
  Activity: 96.7%
Pseudomonas aeruginosa [33]
  Activity: 98.5%
Proteus mirabilis [34]
  MIC50: 0.12 µg/mL (≈ 0.285 µM)
  MIC90: 0.5 µg/mL (≈ 1.19 µM)
Proteus mirabilis [35]
  MIC: 0.06 µg/mL (≈ 0.143 µM)
Acinetobacter [36]
  MIC50: 0.5 µg/mL (≈ 1.19 µM)
  MIC90: 32 µg/mL (≈ 76.1 µM)
Pseudomonas aeruginosa [37]
  Activity: 60.9%
